Results taken from patent publication US8093256B2, “Use of 8-substituted-6,7,8,9-tetrahydropyrimido[1,2-a] pyrimidin-4-one derivatives” (Sanofi-Aventis, priority 2003, dated 2012).
pIC50: −log10 of the molar value. Structures can show the parent of a compound that is named as a salt.

Target: GSK3β (Homo sapiens, UniProt P49841)
Test: Inhibitory activity against GSK3β (33P-ATP phosphorylation of prephosphorylated GS1 peptide, two protocols)
Type: biochemical
Experimental: Inhibitory Activity of the Medicament of the Present Invention Against GSK3β Two different protocols can be used. In a first protocol: 7.5 μM of prephosphorylated GS1 peptide and 10 μM ATP (containing 300,000 cpm of 33P-ATP) were incubated in 25 mM Tris-HCl, pH 7.5, 0.6 mM DTT, 6 mM MgCl2, 0.6 mM EGTA, 0.05 mg/ml BSA buffer for 1 hour at room temperature in the presence of GSK3beta (total reaction volume: 100 microliters). In a second protocol: 4.1 μM of prephosphorylated GS1 peptide and 42 μM ATP (containing 260,000 cpm 33P-ATP) were incubated in 80 mM Mes-NaOH, pH 6.5, 1 mM Mg acetate, 0.5 mM EGTA, 5 mM 2-mercaptoethanol, 0.02% Tween 20, 10% glycerol buffer for 2 hours at room temperature in the presence of GSK3beta. Inhibitors were solubilized in DMSO (final solvent concentration in the reaction medium, 1%). The reaction was stopped with 100 microliters of a solution made of 25 g polyphosphoric acid (85% P2O5), 126 ml 85% H3PO4, H2O to 500 ml and then diluted to 1:100 before use. An aliquot of the reaction mixture was then transferred to Whatman P81 cation exchange filters and rinsed with the solution described above. Incorporated 33P radioactivity was determined by liquid scintillation spectrometry. The phosphorylated GS-1 peptide had the following sequence: NH2-[…](P)EDEE-COOH.

GSK3β, sequence (P49841 whole entry, species assumed): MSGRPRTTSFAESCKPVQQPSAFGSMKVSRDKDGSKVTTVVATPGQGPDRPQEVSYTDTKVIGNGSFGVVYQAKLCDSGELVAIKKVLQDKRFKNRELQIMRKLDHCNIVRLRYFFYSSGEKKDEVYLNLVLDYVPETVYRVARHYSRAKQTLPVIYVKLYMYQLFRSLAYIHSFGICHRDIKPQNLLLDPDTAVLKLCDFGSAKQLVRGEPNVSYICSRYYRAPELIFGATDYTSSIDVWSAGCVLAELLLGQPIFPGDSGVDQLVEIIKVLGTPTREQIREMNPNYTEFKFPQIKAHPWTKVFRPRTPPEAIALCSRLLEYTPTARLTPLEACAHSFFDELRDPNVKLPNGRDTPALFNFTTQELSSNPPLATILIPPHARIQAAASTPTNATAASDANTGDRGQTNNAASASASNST

Row | pIC50 | SMILES
1 | 8.15 | O=C(CN1c2nc(-c3ccncc3)cc(=O)n2CCC1c1ccncc1)c1cccc(Br)c1 (stereo not shown) [Compound No. 15, 9-[2-(3-Bromo-phenyl)-2-oxo-ethyl]-2,8-dipyridin-4-yl-6,7,8,9-tetrahydro-pyrimido[1,2-a]pyrimidin-4-one hydrochloride (1:2)]

Test system: not given
Test: not given

Row | melting point [°C] | SMILES
2 | 170 to 172 | O=c1cc(-c2ccncc2)nc2n1CCC(c1ccccc1)N2CC(O)c1cccc(Br)c1 (stereo not shown) [compound 23, 9-[2-Hydroxy-2-(3-bromo-phenyl)-ethyl]-8-phenyl-2-pyridin-4-yl-6,7,8,9-tetrahydro-pyrimido[1,2-a]pyrimidin-4-one]
3 | 220 to 222 | O=c1cc(-c2ccncc2)nc2n1CCC(c1ccccc1)N2CC(O)c1ccc(Cl)cc1 (stereo not shown) [compound 24, 9-[2-Hydroxy-2-(4-chloro-phenyl)-ethyl]-8-phenyl-2-pyridin-4-yl-6,7,8,9-tetrahydro-pyrimido[1,2-a]pyrimidin-4-one]
4 | 218 to 220 | O=c1cc(-c2ccncc2)nc2n1CCC(c1ccncc1)N2CC(O)c1cccc(F)c1 (stereo not shown) [compound 25, 9-[2-(3-Fluoro-phenyl)-2-hydroxy-ethyl]-2,8-dipyridin-4-yl-6,7,8,9-tetrahydro-pyrimido[1,2-a]pyrimidin-4-one]
5 | 201 to 203 | O=c1cc(-c2ccncc2)nc2n1CCC(c1ccccc1)N2CC(O)c1ccc(F)cc1 (stereo not shown) [compound 26, 9-[2-Hydroxy-2-(4-fluoro-phenyl)-ethyl]-8-phenyl-2-pyridin-4-yl-6,7,8,9-tetrahydro-pyrimido[1,2-a]pyrimidin-4-one]
6 | 145 to 147 | O=c1cc(-c2ccncc2)nc2n1CCC(c1ccccc1)N2CC(O)c1ccc(-c2ccccc2)cc1 (stereo not shown) [compound 27, 9-[2-Hydroxy-2-(4-phenyl-phenyl)-ethyl]-8-phenyl-2-pyridin-4-yl-6,7,8,9-tetrahydro-pyrimido[1,2-a]pyrimidin-4-one]
7 | 190 to 192 | O=c1cc(-c2ccncc2)nc2n1CCC(c1ccccc1)N2CC(O)c1ccc2ccccc2c1 (stereo not shown) [compound 28, 9-[2-Hydroxy-2-naphthalen-2-yl-ethyl]-8-phenyl-2-pyridin-4-yl-6,7,8,9-tetrahydro-pyrimido[1,2-a]pyrimidin-4-one]
